In patent US20170273917A1, “NMDA RECEPTOR ANTAGONISTS FOR TREATING GAUCHER DISEASE” (Yeda Research and Development Co. Ltd., priority 2014, published 2017):

Tests used:
GBA1 = target: T1, GBA1 (Mus musculus, UniProt P17439); assay: GBA1 activity assay in brain homogenates of treated mice; format: in vivo; details: mice treated for 10 days with CBE vs PBS; all strains tested; brains harvested P18
T1 construct: from tissue; host or cells: mouse brain (frozen half-brain homogenate) of inbred strains treated in vivo with PBS, CBE or CBE plus memantine
T1 sequence (P17439 20-515): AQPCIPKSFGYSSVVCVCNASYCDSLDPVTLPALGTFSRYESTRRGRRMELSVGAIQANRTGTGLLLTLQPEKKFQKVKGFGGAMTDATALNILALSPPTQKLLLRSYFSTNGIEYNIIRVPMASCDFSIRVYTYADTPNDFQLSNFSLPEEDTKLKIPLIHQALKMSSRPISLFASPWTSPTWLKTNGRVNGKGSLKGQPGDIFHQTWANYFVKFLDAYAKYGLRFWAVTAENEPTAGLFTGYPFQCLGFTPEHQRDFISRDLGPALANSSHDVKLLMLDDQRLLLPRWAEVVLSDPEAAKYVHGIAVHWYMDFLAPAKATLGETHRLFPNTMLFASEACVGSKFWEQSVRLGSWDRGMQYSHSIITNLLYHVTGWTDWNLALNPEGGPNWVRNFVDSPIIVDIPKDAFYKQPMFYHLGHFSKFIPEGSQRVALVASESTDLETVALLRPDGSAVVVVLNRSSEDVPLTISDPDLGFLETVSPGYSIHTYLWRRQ
Protocol: GBA1 activity assay—GBA1 activity was performed as previously described (Farfel-Becker et al. Hum Mol Genet. 2014; 23(4):843-54). Briefly, frozen half-brain samples were sonicated in Mcllvaine's buffer (0.1 M citric acid, pH 4.2, 0.2 M Na2HPO4, 29:21, vol:vol). Tissue homogenates containing 50 μg of protein were incubated at 37° C. with 8 μM C6-NBD-GlcCer (Avanti Polar Lipids, Alabaster, Ala., USA) in a final volume of 25 μl Mcllvaine's buffer for 30 minutes. Lipids were extracted and the lower phase separated by thin layer chromatography using chloroform:methanol:9.8 mM CaCl2 (60:35:8, vol:vol:vol) as the developing solvent. C6-NBD-ceramide was identified with an authentic standard using a Typhoon 9410 variable mode imager and bands were quantified by Image-QuantTL (GE Healthcare, Chalfont St Giles, UK).
To eliminate the possibility that the phenotypic differences observed in the different mouse strains were caused by differential CBE metabolism in the brain, GBA1 enzymatic activity in mice treated for 10 days with CBE or PBS (control) was measured. […] Overall, the remaining GBA1 activity was 5-10% of the controls (FIG. 3A). There was no correlation between GBA1 activity in the brain and life spans neither in the PBS(R^2=0.126, data not shown) nor CBE conditions (R^2=0.0581, FIG. 3B). In addition, no correlation was found between inhibition of GBA1 activity and life span when evaluated according to strains (R^2=0.0085, data not shown).

inbred mouse strains = assay: Survival of inbred mouse strains injected daily with CBE (GD induction); format: in vivo; details: for Average survival time: CBE 25 mg/kg/day i.p. daily from P8
From the text: Mice—Pure inbred mouse strains were obtained from the Jackson laboratories (USA), Harlan UK and Harlan Israel. Specifically, BTBR T^+ Itpr3^tf/J C3H/HeJ, DBA/2J, MRL/MpJ, WSB/EiJ, MOLF/Ei, PWD/PhJ, KK/HiJ, BPL/1J, I/LnJ, BPN/3J, and LP/J were obtained from Jackson; A/J, AKR/J, NZW/LacJ, 129S1/SvImJ were obtained from Harlan laboratories in the UK; and C57BL/6JOlaHsd, BALB/cJ and FVB/NJ were obtained from the Harlan laboratories in Israel. Gba^flox/flox; nestin-Cre mice, a mouse model of GD were generated as described in Vitner et al. Nature Medicine (2014) 20: 204-208; and Enquist, I. B. et al. Proc. Natl. Acad. Sci. USA (2007) 104: 17483-17488. These mice recapitulate many features of human nGD, although their Gba1 deficiency is restricted to neural and macroglial lineages. Mice were maintained under specific pathogen-free conditions and handled according to protocols approved by the Weizmann Institute Animal Care Committee according to international guidelines.
CBE injections—Conduritol-β-epoxide (CBE) was obtained from Calbiochem Millipore (Darmstadt, Germany). CBE at a dose of 25 mg or 50 mg per kg body weight per day or PBS (control) were administered i.p. to mice daily starting from postnatal day 8 (P8) of age.
To study the potential of different mouse stains to serve as a reliable model for Type 2/3 GD, 15 different inbred mouse strains were chosen. CBE has been used to induce GD in mice for many years (Mumford et al., 1975), and it was used to generate the first animal model for GD disease. CBE is water soluble and crosses the blood brain barrier. The 15 mice strains chosen have diverse phylogenetic origins and their SNP profile is freely available (FIG. 1A). Mice were daily injected i.p. with 25 mg/kg/day of CBE starting on postnatal day 8 and for the rest of their lives (Vitner et al., 2014). […] The strains could be divided into two groups: mice in the first group were very homogeneous in their behavior; they developed a very aggressive disease with a short life span. The second group of strains presented a much longer life expectancy with a broader spectrum of phenotypes.

[1] = system: motor coordination of CBE-treated mice; assay: Locomotor testing by the hanging wire test; format: in vivo, mouse; details: short living CBE-treated strains; weekly from P21 for 2 months
From the text: Locomotor testing—Locomotor coordination was weekly evaluated in the treated strains by the hanging wire test, a validated test for LSD mouse models (Alvarez et al. 2008). Briefly, the mouse was placed with forepaws at a center of a horizontal bar (3 mm diameter; 35 mm long).
To further characterize the effect of CBE treatment on the different strains, motor behavior was followed weekly using the hanging wire test, starting at postnatal day 21 for a period of 2 months. The hanging wire test evaluates coordination and locomotor function, wherein a high score means better coordination. […] Of note, strains PWD/PhJ and WSB/EiJ were excluded in the motor behavior analysis due to their wild behavior.

O[C@H]1[C@H](O)[C@@H](O)[C@@H]2O[C@@H]2[C@@H]1O [CBE, Conduritol-β-epoxide]
remaining cerebral GBA1 activity (GBA1): 5-10 % of the controls | Average survival time (inbred mouse strains; 129S1/SvImJ mice): 108 days | Average survival time (inbred mouse strains; A/J mice): 23 days | Average survival time (inbred mouse strains; AKR/J mice): 24 days | average mortality on day (inbred mouse strains; AKR/J mice, CBE-treated): 24 days | Average survival time (inbred mouse strains; BALB/cJ mice): 130 days | Average survival time (inbred mouse strains; BTBR T+ITPR3TF/J mice): 199 days | 100% mortality on day (inbred mouse strains; BTBR T+ITPR3TF/J mice, CBE-treated): 199 days | Average survival time (inbred mouse strains; C3H/HeJ mice): 24 days | Average survival time (inbred mouse strains; C57BL6/JolaHsd mice): 29 days | Average survival time (inbred mouse strains; DBA/2J mice): 26 days | Average survival time (inbred mouse strains; FVB/NJ mice): 106 days | Average survival time (inbred mouse strains; KK/HlJ mice): 143 days | Average survival time (inbred mouse strains; MOLF/Ei mice): 41 days | Average survival time (inbred mouse strains; MRL/MpJ mice): 30 days | Average survival time (inbred mouse strains; NZW/LacJ mice): 84 days | Average survival time (inbred mouse strains; PWD/Ph mice): 119 days | Average survival time (inbred mouse strains; WSB/EiJ mice): 38 days | motor behavior (hanging wire test) [1]: poor motor behaviors starting at very early time points
